Experimental data published in the NIST ThermoML archive (doi:10.1016/j.fluid.2011.04.022).
± gives the expanded uncertainty stated by the source.

Details: Liquid, Vibrating tube method

FC(F)(F)CC(F)(F)F [1,1,1,3,3,3-hexafluoropropane]
mass density [kg/m3]
Details | 293.38 K | 303.23 K | 313.1 K | 322.94 K | 333.06 K | 343.19 K | 353.23 K | 363.22 K | 373.17 K
1000 kPa | 1380.41 ± 1.6 | 1346.41 ± 1.8 | 1310.15 ± 2 | 1272.73 ± 2.3 | 1230.59 ± 2.5 | – | – | – | –
3000 kPa | 1389.7 ± 1.6 | 1356.85 ± 1.7 | 1322.54 ± 1.9 | 1287.52 ± 2.1 | 1248.74 ± 2.4 | 1207.31 ± 2.8 | 1161.43 ± 3.2 | – | –
5000 kPa | 1398.14 ± 1.6 | 1366.62 ± 1.6 | 1333.75 ± 1.7 | 1300.71 ± 1.9 | 1264.58 ± 2 | 1226.45 ± 2.3 | 1185.57 ± 2.6 | 1140.64 ± 3 | 1091.26 ± 3.4
10000 kPa | 1417.22 ± 1.5 | 1388.23 ± 1.6 | 1358.32 ± 1.7 | 1328.74 ± 1.8 | 1297.09 ± 1.9 | 1264.58 ± 2 | 1230.77 ± 2.3 | 1195.26 ± 2.5 | 1158.13 ± 2.9
15000 kPa | 1434.22 ± 1.5 | 1407.04 ± 1.5 | 1379.33 ± 1.6 | 1352.16 ± 1.6 | 1323.56 ± 1.7 | 1294.29 ± 1.8 | 1264.63 ± 1.9 | 1233.73 ± 2.1 | 1202.21 ± 2.2
20000 kPa | 1449.45 ± 1.5 | 1423.79 ± 1.5 | 1397.77 ± 1.5 | 1372.4 ± 1.6 | 1345.92 ± 1.6 | 1319.04 ± 1.7 | 1292.08 ± 1.8 | 1264.17 ± 1.8 | 1236.05 ± 1.9
25000 kPa | 1463.39 ± 1.5 | 1438.88 ± 1.5 | 1414.16 ± 1.5 | 1390.33 ± 1.6 | 1365.48 ± 1.6 | 1340.43 ± 1.6 | 1315.3 ± 1.7 | 1289.66 ± 1.7 | 1263.9 ± 1.8
30000 kPa | 1476.18 ± 1.5 | 1452.75 ± 1.5 | 1429.13 ± 1.5 | 1406.5 ± 1.6 | 1382.82 ± 1.6 | 1359.27 ± 1.6 | 1335.89 ± 1.6 | 1311.7 ± 1.6 | 1287.72 ± 1.7
35000 kPa | 1488.18 ± 1.6 | 1465.54 ± 1.6 | 1442.8 ± 1.6 | 1421.01 ± 1.6 | 1398.61 ± 1.6 | 1376.24 ± 1.6 | 1354.11 ± 1.6 | 1331.22 ± 1.6 | 1308.62 ± 1.6
40000 kPa | 1499.36 ± 1.6 | 1477.52 ± 1.6 | 1455.53 ± 1.6 | 1434.57 ± 1.6 | 1413.18 ± 1.6 | 1391.75 ± 1.6 | 1370.58 ± 1.6 | 1348.77 ± 1.6 | 1327.34 ± 1.6
50000 kPa | 1519.84 ± 1.7 | 1499.35 ± 1.7 | 1478.52 ± 1.7 | 1459.05 ± 1.7 | 1439.06 ± 1.7 | 1419.24 ± 1.6 | 1399.7 ± 1.6 | 1379.54 ± 1.6 | 1359.88 ± 1.6
60000 kPa | 1538.35 ± 1.9 | 1518.78 ± 1.9 | 1499.21 ± 1.8 | 1480.75 ± 1.8 | 1461.86 ± 1.8 | 1443.29 ± 1.8 | 1424.96 ± 1.7 | 1406.01 ± 1.7 | 1387.66 ± 1.7
70000 kPa | 1555.2 ± 2.1 | 1536.58 ± 2 | 1517.63 ± 2 | 1500.21 ± 2 | 1482.19 ± 1.9 | 1464.6 ± 1.9 | 1447.34 ± 1.9 | 1429.34 ± 1.8 | 1412.03 ± 1.8

FC(F)CC(F)(F)F [1,1,1,3,3-pentafluoropropane]
mass density [kg/m3]
Details | 293.84 K | 303.46 K | 313.18 K | 323 K | 332.83 K | 343.01 K | 353 K | 362.91 K | 372.94 K
1000 kPa | 1352.16 ± 1.4 | 1326.31 ± 1.5 | 1299.2 ± 1.5 | 1270.55 ± 1.6 | 1240.26 ± 1.7 | 1206.92 ± 1.9 | – | – | –
3000 kPa | 1357.97 ± 1.4 | 1332.8 ± 1.4 | 1306.56 ± 1.5 | 1278.98 ± 1.6 | 1250.02 ± 1.7 | 1218.46 ± 1.8 | 1185.75 ± 2 | 1150.79 ± 2.2 | 1112.26 ± 2.5
5000 kPa | 1363.53 ± 1.4 | 1338.98 ± 1.4 | 1313.51 ± 1.4 | 1286.86 ± 1.5 | 1259.06 ± 1.6 | 1228.97 ± 1.7 | 1198.11 ± 1.8 | 1165.55 ± 1.9 | 1130.36 ± 2.2
10000 kPa | 1376.42 ± 1.4 | 1353.32 ± 1.4 | 1329.44 ± 1.4 | 1304.71 ± 1.5 | 1279.16 ± 1.5 | 1251.88 ± 1.6 | 1224.38 ± 1.7 | 1195.94 ± 1.8 | 1165.97 ± 1.9
15000 kPa | 1388.34 ± 1.4 | 1366.31 ± 1.4 | 1343.73 ± 1.4 | 1320.47 ± 1.4 | 1296.63 ± 1.5 | 1271.37 ± 1.5 | 1246.17 ± 1.6 | 1220.45 ± 1.6 | 1193.67 ± 1.7
20000 kPa | 1399.29 ± 1.4 | 1378.22 ± 1.4 | 1356.77 ± 1.4 | 1334.65 ± 1.4 | 1312.15 ± 1.4 | 1288.45 ± 1.5 | 1265.01 ± 1.5 | 1241.23 ± 1.6 | 1216.58 ± 1.6
25000 kPa | 1409.54 ± 1.4 | 1389.33 ± 1.4 | 1368.61 ± 1.4 | 1347.58 ± 1.4 | 1326.17 ± 1.4 | 1303.77 ± 1.4 | 1281.67 ± 1.5 | 1259.38 ± 1.5 | 1236.4 ± 1.5
30000 kPa | 1419.03 ± 1.4 | 1399.65 ± 1.4 | 1379.73 ± 1.4 | 1359.46 ± 1.4 | 1339.02 ± 1.4 | 1317.65 ± 1.4 | 1296.64 ± 1.5 | 1275.54 ± 1.5 | 1253.82 ± 1.5
35000 kPa | 1428.09 ± 1.5 | 1409.33 ± 1.4 | 1390.16 ± 1.4 | 1370.64 ± 1.4 | 1350.93 ± 1.4 | 1330.42 ± 1.4 | 1310.33 ± 1.5 | 1290.2 ± 1.5 | 1269.55 ± 1.5
40000 kPa | 1436.79 ± 1.5 | 1418.45 ± 1.5 | 1399.89 ± 1.5 | 1381.03 ± 1.5 | 1362.03 ± 1.5 | 1342.2 ± 1.5 | 1322.95 ± 1.5 | 1303.67 ± 1.5 | 1283.89 ± 1.5
50000 kPa | 1452.73 ± 1.6 | 1435.43 ± 1.6 | 1417.82 ± 1.6 | 1400.08 ± 1.6 | 1382.12 ± 1.5 | 1363.61 ± 1.5 | 1345.62 ± 1.5 | 1327.67 ± 1.5 | 1309.28 ± 1.5
60000 kPa | 1467.39 ± 1.7 | 1450.88 ± 1.7 | 1434.07 ± 1.7 | 1417.12 ± 1.6 | 1400.21 ± 1.6 | 1382.71 ± 1.6 | 1365.63 ± 1.6 | 1348.77 ± 1.6 | 1331.43 ± 1.6
70000 kPa | 1480.99 ± 1.9 | 1465.1 ± 1.8 | 1449.07 ± 1.8 | 1432.87 ± 1.8 | 1416.64 ± 1.8 | 1399.92 ± 1.7 | 1383.75 ± 1.7 | 1367.68 ± 1.7 | 1351.23 ± 1.6
